Measurements: patent US20220396586A1, “THIAZOLE CARBOXAMIDE COMPOUNDS AND USE THEREOF FOR THE TREATMENT OF MYCOBACTERIAL INFECTIONS” (THE GLOBAL ALLIANCE FOR TB DRUG DEVELOPMENT, INC., priority 2019, published 2022)
Converted amounts (≈) assume the structure as drawn.

Columns and labels:
M. ab_ATCC = assay: MIC against Mycobacterium abscessus (M. ab_ATCC, MHII), procedure of Franz 2017; format: cell-based; conditions: Mycobacterium abscessus ATCC; for MIC: Mycobacteroides abscessus
Description: The procedure described in Franz 2017 was used to generate the data shown in column 2 of Table 1.

M. tb H37Rv = assay: MIC determination against M. tb H37Rv (MIC-MABA); format: cell-based, Mycobacterium tuberculosis; conditions: 7H9 broth, 10 days exposure, MIC = lowest concentration inhibiting fluorescence by 90%; for MIC: Mycobacterium tuberculosis, H37RV, 240 h, read-out: M. tb H37Rv: MIC-MABA, M. tb H37Rv

`C[Si]1(C)CCC(NC(=O)c2cc3sc(-c4ccccc4)nc3[nH]2)C1` (centres unmarked) [MPL-404, N-(1,1-dimethylsilolan-3-yl)-2-phenyl-4H-pyrrolo[2,3-d]thiazole-5-carboxamide] showed an MIC (M. ab_ATCC) of 64 µg/mL (≈ 180 µM) and an MIC (M. tb H37Rv) of 0.083 µg/mL (≈ 0.233 µM).

`COc1nc2[nH]c(C(=O)NC3CCC[Si](C)(C)CC3)cc2s1` (racemic) [MPL-395, N-(1,1-dimethylsilepan-4-yl)-2-methoxy-4H-pyrrolo[2,3-d]thiazole-5-carboxamide] gave an MIC (M. ab_ATCC) of 1 µg/mL (≈ 2.96 µM) and an MIC (M. tb H37Rv) of 0.047 µg/mL (≈ 0.139 µM).

`O=C(NC1CC[Si]2(CCCC2)CC1)c1cc2sc(-c3ccccc3)nc2[nH]1` [MPL-358, 2-phenyl-N-(5-silaspiro[4.5]decan-8-yl)-4H-pyrrolo[2,3-d]thiazole-5-carboxamide] was tested, and the MIC (M. ab_ATCC) was > 64 µg/mL and the MIC (M. tb H37Rv) was 0.033 µg/mL (≈ 0.0834 µM).

For `COc1nc2[nH]c(C(=O)NC3CCC[Si](C)(C)CC3)cc2s1` (single isomer, unassigned) [MPL-395B, N-(1,1-dimethylsilepan-4-yl)-2-methoxy-4H-pyrrolo[2,3-d]thiazole-5-carboxamide], the “M. ab_ATCC: MIC MHII: MIC” value (M. ab_ATCC) was >64 µg/mL and the “M. tb H37Rv: MIC-MABA” value (M. tb H37Rv) was 0.999 µg/mL.

With `Cc1ccccc1-c1nc2[nH]c(C(=O)NC3CC[Si](C)(C)CC3)cc2s1` [MPL-371, N-(1,1-dimethylsilinan-4-yl)-2-(o-tolyl)-4H-pyrrolo[2,3-d]thiazole-5-carboxamide] the MIC (M. ab_ATCC) was > 64 µg/mL and the MIC (M. tb H37Rv) was 0.041 µg/mL (≈ 0.107 µM).

With `C[Si]1(C)CCC(NC(=O)c2[nH]c3sc(C4CC4)nc3c2Br)CC1` [MPL-311, 6-bromo-2-cyclopropyl-N-(1,1-dimethylsilinan-4-yl)-4H-pyrrolo[3,2-d]thiazole-5-carboxamide] the MIC (M. ab_ATCC) was > 64 µg/mL and the MIC (M. tb H37Rv) was 0.457 µg/mL (≈ 1.11 µM).

With `COCCOc1nc2[nH]c(C(=O)NC3CC[Si]4(CCCCC4)CC3)cc2s1` [MPL-427, 2-(2-methoxyethoxy)-N-(6-silaspiro[5.5]undecan-3-yl)-4H-pyrrolo[2,3-d] thiazole-5-carboxamide] the MIC (M. ab_ATCC) was > 64 µg/mL and the MIC (M. tb H37Rv) was 0.036 µg/mL (≈ 0.0883 µM).

In the case of `Cc1nc2cc(C(=O)NC3CCCCCCC3)[nH]c2s1` [MPL-091, N-cyclooctyl-2-methyl-4H-pyrrolo[3,2-d]thiazole-5-carboxamide], the MIC (M. ab_ATCC) is reported as > 64 µg/mL and the MIC (M. tb H37Rv) is reported as > 3.2 µg/mL.

`COc1nc2[nH]c(C(=O)NC3CCC[Si](C)(C)CCC3)cc2s1` [MPL-396, N-(1,1-dimethylsilocan-5-yl)-2-methoxy-4H-pyrrolo[2,3-d]thiazole-5-carboxamide] was tested, and the MIC (M. ab_ATCC) was > 64 µg/mL and the MIC (M. tb H37Rv) was 0.309 µg/mL (≈ 0.879 µM).

`Cc1nc2cc(C(=O)NC3CC[Si](C)(C)CC3)[nH]c2s1` [MPL-206, N-(1,1-dimethylsilinan-4-yl)-2-methyl-4H-pyrrolo[3,2-d]thiazole-5-carboxamide] was tested, and the MIC (M. ab_ATCC) was > 64 µg/mL and the MIC (M. tb H37Rv) was > 1.6 µg/mL.

In the case of `Cc1nc2[nH]c(C(=O)N[C@H]3C[C@H]4C[C@H](C4(C)C)[C@@]3(C)O)cc2s1` [MPL-224, N-[(1R,2R,3S,5R)-2-hydroxy-2,6,6-trimethyl-norpinan-3-yl]-2-methyl-4H-pyrrolo[2,3-d]thiazole-5-carboxamide], the MIC (M. ab_ATCC) is reported as > 64 µg/mL and the MIC (M. tb H37Rv) is reported as 0.39 µg/mL (≈ 1.17 µM).

`COc1nc2[nH]c(C(=O)NC3CC[Si](C)(C)CC3)cc2s1` [MPL-309, N-(1,1-dimethylsilinan-4-yl)-2-methoxy-4H-pyrrolo[2,3-d]thiazole-5-carboxamide] was tested, and the MIC (M. ab_ATCC) was 0.625 µg/mL (≈ 1.93 µM) and the MIC (M. tb H37Rv) was 0.088 µg/mL (≈ 0.272 µM).

For `Cc1c(C(=O)N[C@H]2C[C@H]3C[C@@H]([C@@H]2C)C3(C)C)[nH]c2nc(C3CC3)sc12` [MPL-150, 2-cyclopropyl-6-methyl-N-((1S,2S,3S,5R)-2,6,6-trimethylbicyclo[3.1.1]heptan-3-yl)-4H-pyrrolo[2,3-d]thiazole-5-carboxamide], the MIC (M. ab_ATCC) was > 64 µg/mL and the MIC (M. tb H37Rv) was 0.3 µg/mL (≈ 0.839 µM).

Work on `C[Si]1(C)CCC(NC(=O)c2cc3sc(C4CC4)nc3[nH]2)CC1` [MPL-240, 2-cyclopropyl-N-(1,1-dimethylsilinan-4-yl)-4H-pyrrolo[2,3-d]thiazole-5-carboxamide] yielded an MIC (M. ab_ATCC) of 0.5 µg/mL (≈ 1.5 µM) and an MIC (M. tb H37Rv) of 0.46 µg/mL (≈ 1.38 µM).

In the case of `C[Si]1(C)CCCC(NC(=O)c2cc3sc(OC4CCCC4)nc3[nH]2)CC1` (centres unmarked) [MPL-478, 2-(cyclopentoxy)-N-(1,1-dimethylsilepan-4-yl)-4H-pyrrolo[2,3-d]thiazole-5-carboxamide], the MIC (M. ab_ATCC) is reported as > 64 µg/mL and the MIC (M. tb H37Rv) is reported as 0.02 µg/mL (≈ 0.0511 µM).

With `C[Si]1(C)CCCC(NC(=O)c2cc3sc(-c4ccccc4)nc3[nH]2)CC1` (racemic) [MPL-357, N-(1,1-dimethylsilepan-4-yl)-2-phenyl-4H-pyrrolo[2,3-d]thiazole-5-carboxamide] the MIC (M. ab_ATCC) was > 64 µg/mL and the MIC (M. tb H37Rv) was 0.012 µg/mL (≈ 0.0313 µM).

`COc1nc2[nH]c(C(=O)NC3CC[Si]4(CCCCC4)CC3)cc2s1` [MPL-394, 2-methoxy-N-(6-silaspiro[5.5]undecan-3-yl)-4H-pyrrolo[2,3-d]thiazole-5-carboxamide] was tested, and the MIC (M. ab_ATCC) was > 64 µg/mL and the MIC (M. tb H37Rv) was 0.04 µg/mL (≈ 0.11 µM).

In the case of `C[Si]1(C)CCCC(NC(=O)c2cc3sc(OC4CC4)nc3[nH]2)CC1` (centres unmarked) [MPL-472, 2-(cyclopropoxy)-N-(1,1-dimethylsilepan-4-yl)-4H-pyrrolo[2,3-d]thiazole-5-carboxamide], the MIC (M. ab_ATCC) is reported as > 64 µg/mL and the MIC (M. tb H37Rv) is reported as 0.06 µg/mL (≈ 0.165 µM).

`C[Si]1(C)CCCC(NC(=O)c2cc3sc(-c4ccccn4)nc3[nH]2)CC1` (centres unmarked) [MPL-364, N-(1,1-dimethylsilepan-4-yl)-2-(2-pyridyl)-4H-pyrrolo[2,3-d]thiazole-5-carboxamide] was tested, and the MIC (M. ab_ATCC) was > 64 µg/mL and the MIC (M. tb H37Rv) was 0.423 µg/mL (≈ 1.1 µM).

In the case of `COc1nc2[nH]c(C(=O)NC3CCC[Si](C)(C)CC3)cc2s1` (single isomer, unassigned) [MPL-395A, N-(1,1-dimethylsilepan-4-yl)-2-methoxy-4H-pyrrolo[2,3-d]thiazole-5-carboxamide], the “M. ab_ATCC: MIC MHII: MIC” value (M. ab_ATCC) is reported as 0.5 µg/mL and the “M. tb H37Rv: MIC-MABA” value (M. tb H37Rv) is reported as 0.030 µg/mL.

`C[Si]1(C)CCCC(NC(=O)c2cc3sc(-c4ccccc4)nc3[nH]2)CCC1` [MPL-369, N-(1,1-dimethylsilocan-5-yl)-2-phenyl-4H-pyrrolo[2,3-d]thiazole-5-carboxamide] was tested, and the MIC (M. ab_ATCC) was > 64 µg/mL and the MIC (M. tb H37Rv) was 0.031 µg/mL (≈ 0.078 µM).

Work on `COCc1nc2[nH]c(C(=O)NC3CC[Si]4(CCCCC4)CC3)cc2s1` [MPL-429, 2-(methoxymethyl)-N-(6-silaspiro[5.5]undecan-3-yl)-4H-pyrrolo[2,3-d]thiazole-5-carboxamide] yielded an MIC (M. ab_ATCC) of 64 µg/mL (≈ 169 µM) and an MIC (M. tb H37Rv) of 0.058 µg/mL (≈ 0.154 µM).

For `COc1nc2[nH]c(C(=O)NC3CC[Si]4(CCCC4)CC3)cc2s1` [MPL-393, 2-methoxy-N-(5-silaspiro[4.5]decan-8-yl)-4H-pyrrolo[2,3-d]thiazole-5-carboxamide], the MIC (M. ab_ATCC) was > 64 µg/mL and the MIC (M. tb H37Rv) was 0.062 µg/mL (≈ 0.177 µM).

With `Cc1nc2[nH]c(C(=O)NC3CCC(C)(C)CC3)cc2s1` [MPL-020, N-(4,4-dimethylcyclohexyl)-2-methyl-4H-pyrrolo[2,3-d]thiazole-5-carboxamide] the MIC (M. ab_ATCC) was 2 µg/mL (≈ 6.86 µM) and the MIC (M. tb H37Rv) was 0.53 µg/mL (≈ 1.82 µM).

`Cc1nc2[nH]c(C(=O)NC3CCCCCCC3)cc2s1` [MPL-042, N-cyclooctyl-2-methyl-4H-pyrrolo[2,3-d]thiazole-5-carboxamide] was tested, and the MIC (M. ab_ATCC) was > 64 µg/mL and the MIC (M. tb H37Rv) was 0.35 µg/mL (≈ 1.2 µM).

`Cc1nc2[nH]c(C(=O)NC3CC[Si](C)(C)CC3)cc2s1` [MPL-205, N-(1,1-dimethylsilinan-4-yl)-2-methyl-4H-pyrrolo [2,3-d]thiazole-5-carboxamide] was tested, and the MIC (M. ab_ATCC) was > 64 µg/mL and the MIC (M. tb H37Rv) was 0.18 µg/mL (≈ 0.585 µM).

`C[Si]1(C)CCC(NC(=O)c2cc3sc(-c4ccccc4F)nc3[nH]2)CC1` [MPL-373, N-(1,1-dimethylsilinan-4-yl)-2-(2-fluorophenyl)-4H-pyrrolo[2,3-d]thiazole-5-carboxamide] gave an MIC (M. ab_ATCC) of 6 µg/mL (≈ 15.5 µM) and an MIC (M. tb H37Rv) of 0.084 µg/mL (≈ 0.217 µM).

With `C[Si]1(C)CCCC(NC(=O)c2cc3sc(-c4cccnc4)nc3[nH]2)CC1` (centres unmarked) [MPL-365, N-(1,1-dimethylsilepan-4-yl)-2-(3-pyridyl)-4H-pyrrolo[2,3-d]thiazole-5-carboxamide] the MIC (M. ab_ATCC) was > 64 µg/mL and the MIC (M. tb H37Rv) was 0.125 µg/mL (≈ 0.325 µM).

For `O=C(NC1CC[Si]2(CCCC2)CC1)c1cc2sc(OC3CC3)nc2[nH]1` [MPL-458, 2-(cyclopropoxy)-N-(5-silaspiro[4.5]decan-8-yl)-4H-pyrrolo[2,3-d]thiazole-5-carboxamide], the MIC (M. ab_ATCC) was > 64 µg/mL and the MIC (M. tb H37Rv) was 0.124 µg/mL (≈ 0.33 µM).

`COc1nc2[nH]c(C(=O)NC3CC[Si](C)(C)C3)cc2s1` (centres unmarked) [MPL-403, N-(1,1-dimethylsilolan-3-yl)-2-methoxy-4H-pyrrolo[2,3-d]thiazole-5-carboxamide] showed an MIC (M. ab_ATCC) of 4 µg/mL (≈ 12.9 µM) and an MIC (M. tb H37Rv) of 0.809 µg/mL (≈ 2.61 µM).

In the case of `O=C(NC1CC[Si]2(CCCCC2)CC1)c1cc2sc(-c3ccccc3)nc2[nH]1` [MPL-359, 2-phenyl-N-(6-silaspiro[5.5]undecan-3-yl)-4H-pyrrolo[2,3-d]thiazole-5-carboxamide], the MIC (M. ab_ATCC) is reported as > 64 µg/mL and the MIC (M. tb H37Rv) is reported as 0.014 µg/mL (≈ 0.0342 µM).
